Patent US20080026996A1, “Selective Vpac2 Receptor Reptide Agonists” (ELI LILLY AND COMPANY, priority 2004, published 2008)
Values joined by “and” are separate entries in the source; they are usually repeats but may differ in a detail not shown here. Equal values may be shown once. Read-outs that look alike come from different tables or passages of the source. Where a SMILES comes first, the peptide text is derived from it. Where no end group is shown, it is not given here. [ ]: non-standard residue; d: D form. The star is where a group is joined. Hexanoyl = CCCCCC(=O)*; Aib = CC(C)(N)C(=O)O

Tests used:
Normal Wistar rats = assay: Intravenous glucose tolerance test (IVGTT); format: in vivo, rat; settings: for % increase AUC: Dose = 0.5 μg/kg / % increase AUC: Dose = 10 μg/kg: IVGTT, insulin
Procedure: Intravenous glucose tolerance test (IVGTT): Normal Wistar rats are fasted overnight and are anesthetized prior to the experiment. A blood sampling catheter is inserted into the rats. The compound is given in the jugular vein. Blood samples are taken from the carotid artery. A blood sample is drawn immediately prior to the injection of glucose along with the compound. After the initial blood sample, glucose mixed with compound is injected intravenously (i.v.). A glucose challenge of 0.5 g/kg body weight is given, injecting a total of 1.5 mL vehicle with glucose and agonist per kg body weight. The peptide concentration vary to produce the desired dose in μg/kg. Blood samples are drawn at 2, 4, 6 and 10 minutes after giving glucose. The control group of animals receives the same vehicle along with glucose, but with no compound added. In some instances, a 30 minute post-glucose blood sample is drawn. Aprotinin is added to the blood sample (250 kIU/ml blood). The serum is then analyzed for glucose and insulin using standard methodologies.
The assay uses a formulated and calibrated peptide stock in PBS. Normally, this stock is a prediluted 100 μM stock. However, a more concentrated stock with approximately 1 mg agonist per mL is used. The specific concentration is always known. Variability in the maximal response is mostly due to variability in the vehicle dose.

human PAC1 = molecular target: T1, human PAC1 (Homo sapiens, UniProt P41586); assay: Filter binding assay, membranes of cells transiently transfected with human PAC1, 125I-labeled PACAP-27 tracer (Table 2); set-up: expressed in transfected cells
T1 sequence (P41586 21-468): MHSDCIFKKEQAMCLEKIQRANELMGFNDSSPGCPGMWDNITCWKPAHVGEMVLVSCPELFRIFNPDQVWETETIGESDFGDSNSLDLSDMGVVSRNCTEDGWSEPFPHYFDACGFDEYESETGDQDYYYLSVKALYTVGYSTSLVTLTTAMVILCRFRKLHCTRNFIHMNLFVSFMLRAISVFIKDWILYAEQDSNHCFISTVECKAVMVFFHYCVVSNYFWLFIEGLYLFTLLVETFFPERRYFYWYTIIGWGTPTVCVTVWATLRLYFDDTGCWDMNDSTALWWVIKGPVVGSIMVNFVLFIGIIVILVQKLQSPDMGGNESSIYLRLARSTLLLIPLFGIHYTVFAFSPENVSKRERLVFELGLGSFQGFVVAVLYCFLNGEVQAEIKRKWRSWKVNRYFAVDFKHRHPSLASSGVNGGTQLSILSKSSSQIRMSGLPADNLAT
How it was run: (§1)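 Competition binding of agonists against radiotracer on receptor membranes (2.5 μg) in 25 mM HEPES pH 7.4 with 0.5% protease-free BSA, about 40000 cpm tracer, 1 hour with shaking. Bound tracer was separated by filtration on PEI-presoaked, BSA-blocked glass-fibre filters, washed and counted by scintillation.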

human VPAC2 [1] = molecular target: T2, human VPAC2 (Homo sapiens, UniProt P41587); assay: Alpha screen cAMP in vitro potency, human VPAC2 receptor; format: cell-based
T2 construct: expressed in transfected cells
T2 sequence (P41587 24-438): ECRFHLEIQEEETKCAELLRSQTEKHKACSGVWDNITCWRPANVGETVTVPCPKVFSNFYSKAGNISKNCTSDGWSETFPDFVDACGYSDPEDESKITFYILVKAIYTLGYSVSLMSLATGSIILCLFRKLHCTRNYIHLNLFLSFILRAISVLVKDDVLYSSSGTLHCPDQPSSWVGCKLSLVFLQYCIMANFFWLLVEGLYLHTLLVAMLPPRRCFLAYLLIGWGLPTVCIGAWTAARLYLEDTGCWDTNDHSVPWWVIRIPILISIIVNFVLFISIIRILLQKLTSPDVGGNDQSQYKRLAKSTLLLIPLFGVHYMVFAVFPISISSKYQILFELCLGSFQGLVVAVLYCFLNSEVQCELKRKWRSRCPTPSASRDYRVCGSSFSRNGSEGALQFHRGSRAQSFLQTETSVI
How it was run: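 Dissociated cells, 50,000 per point in stimulation buffer, were incubated with stimuli and AlphaScreen acceptor beads for 60 min.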

human VPAC2 [2] = molecular target: T2, human VPAC2; assay: Filter binding assay, membranes of stable VPAC2 cell line, 125I-labeled VIP tracer (Table 2)
How it was run: as §1

human VPAC1 = molecular target: T3, human VPAC1 (Homo sapiens, UniProt P32241); assay: Filter binding assay, membranes of cells transiently transfected with human VPAC1, 125I-labeled VIP tracer (Table 2); set-up: expressed in transfected cells
T3 sequence (P32241 31-457): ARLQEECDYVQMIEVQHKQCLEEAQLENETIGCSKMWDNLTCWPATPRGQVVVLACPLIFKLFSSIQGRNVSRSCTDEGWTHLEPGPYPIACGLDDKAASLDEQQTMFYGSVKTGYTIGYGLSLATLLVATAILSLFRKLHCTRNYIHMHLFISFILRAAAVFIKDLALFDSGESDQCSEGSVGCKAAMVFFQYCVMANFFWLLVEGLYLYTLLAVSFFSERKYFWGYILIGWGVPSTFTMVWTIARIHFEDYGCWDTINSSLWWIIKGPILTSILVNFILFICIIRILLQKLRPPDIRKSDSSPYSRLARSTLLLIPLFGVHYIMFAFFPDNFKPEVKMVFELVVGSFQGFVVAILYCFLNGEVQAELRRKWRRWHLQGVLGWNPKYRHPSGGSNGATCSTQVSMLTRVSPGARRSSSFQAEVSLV
How it was run: as §1

[3] = read-out: Human PAC1 Receptor Binding
[4] = cAMP generation, single result from two analyses performed in a single run, read-out: Human VPAC2 Receptor: Alpha Screen EC50
[5] = read-out: Human VPAC2 Receptor Binding
[6] = read-out: Human VPAC1 Receptor Binding

Row | Compound | % increase AUC: Dose = 0.5 μg/kg (Normal Wistar rats) | % increase AUC: Dose = 10 μg/kg (Normal Wistar rats) | IC50 (human PAC1; [3]) [nM] | EC50 (human VPAC2 [1]; [4]) [nM] | IC50 (human VPAC2 [2]; [5]) [nM] | IC50 (human VPAC1; [6]) [nM] | IVGTT ED50 (Normal Wistar rats) [µg/kg] | IC50 (human PAC1) [nM] | EC50 (human VPAC2 [1]) [nM] | IC50 (human VPAC2 [2]) [nM] | IC50 (human VPAC1) [nM]
1 | CCCCCC(=O)N[C@@H](Cc1c[nH]cn1)C(=O)N[C@@H](CO)C(=O)N[C@@H](CC(=O)O)C(=O)N[C@@H](C)C(=O)N[C@H](C(=O)N[C@@H](Cc1ccccc1)C(=O)N[C@H](C(=O)N[C@@H](CC(=O)O)C(=O)N[C@@H](CC(N)=O)C(=O)N[C@@H](Cc1ccc(O)cc1)C(=O)N[C@H](C(=O)N[C@@H](CCCNC(=N)N)C(=O)N[C@@H](CC(C)C)C(=O)N[C@@H](CCCNC(=N)N)C(=O)NC(C)(C)C(=O)N[C@@H](CCC(N)=O)C(=O)N[C@@H](CC(C)C)C(=O)N[C@@H](C)C(=O)N[C@@H](C)C(=O)NC(C)(C)C(=O)N[C@@H](CCCCN)C(=O)N[C@@H](Cc1ccc(O)cc1)C(=O)N[C@@H](CC(C)C)C(=O)N[C@@H](CCC(N)=O)C(=O)N[C@@H](CO)C(=O)N[C@H](C(=O)N[C@@H](CCCCN)C(=O)N[C@@H](CC(N)=O)C(=O)N[C@@H](CCCCN)C(=O)NCC(=O)NCC(=O)N1CCC[C@H]1C(=O)N[C@@H](CO)C(=O)N[C@@H](CO)C(=O)NCC(=O)N[C@@H](C)C(=O)N1CCC[C@H]1C(=O)N1CCC[C@H]1C(=O)N1CCC[C@H]1C(=O)N[C@@H](CO)C(=O)O)[C@@H](C)CC)[C@@H](C)O)[C@@H](C)O)C(C)C [Agonist P292] (Hexanoyl-HSDAVFTDNYTRLR[Aib]QLAA[Aib]KYLQSIKNKGGPSSGAPPPS-OH; C-terminus assumed) | 292% | 370% | > 25000 | 0.23 | 0.3 | > 3000 |  |  |  |  | 
2 | Hexanoyl-HSDAVFTDNYTRLR[Aib]QVAA[Aib]KYLQSIKNKRYGGPSSGAPPPS [Agonist P261] | 136% | 320% | > 25000 | 0.09 | 0.2 | 1000 |  |  |  |  | 
3 | Hexanoyl-HSDAVFTDNYTRLRKQVAAKKYLQSIKNKRYGGPSSGAPPPS [Agonist P31] | 250% |  | 406 | 0.13 | 0.23 | 145 |  |  |  |  | 
4 | Hexanoyl-HSDAVFTDNYTRLLAKLALQKYLQSIKNKRYGGPSSGAPPPS [Agonist P119] | 118% | 240% | > 25000 | 0.42 | 0.48 | > 3000 | 0.3 |  |  |  | 
5 | Hexanoyl-HSDAVFTDNYTRLR[Aib]QVAAK[Aib]YLQSIKNKRYGGPSSGAPPPS [Agonist P264] | 10% | 95% | > 25000 | 0.1 | 0.88 | > 3000 |  |  |  |  | 
6 | H-MHSDAVFTDNYTRLRKQVAAKKYLQSIKNKRYGGPSSGAPPPS [Agonist P104] | 142% and 205% | 198% and 370% |  |  |  |  |  | 117 | 0.27 | 0.68 | 301
